For the assay, the target named is T1, human recombinant P2X7 receptor (Homo sapiens, UniProt Q99572).
T1 construct: expressed in transfected cells
T1 sequence (Q99572 1-595): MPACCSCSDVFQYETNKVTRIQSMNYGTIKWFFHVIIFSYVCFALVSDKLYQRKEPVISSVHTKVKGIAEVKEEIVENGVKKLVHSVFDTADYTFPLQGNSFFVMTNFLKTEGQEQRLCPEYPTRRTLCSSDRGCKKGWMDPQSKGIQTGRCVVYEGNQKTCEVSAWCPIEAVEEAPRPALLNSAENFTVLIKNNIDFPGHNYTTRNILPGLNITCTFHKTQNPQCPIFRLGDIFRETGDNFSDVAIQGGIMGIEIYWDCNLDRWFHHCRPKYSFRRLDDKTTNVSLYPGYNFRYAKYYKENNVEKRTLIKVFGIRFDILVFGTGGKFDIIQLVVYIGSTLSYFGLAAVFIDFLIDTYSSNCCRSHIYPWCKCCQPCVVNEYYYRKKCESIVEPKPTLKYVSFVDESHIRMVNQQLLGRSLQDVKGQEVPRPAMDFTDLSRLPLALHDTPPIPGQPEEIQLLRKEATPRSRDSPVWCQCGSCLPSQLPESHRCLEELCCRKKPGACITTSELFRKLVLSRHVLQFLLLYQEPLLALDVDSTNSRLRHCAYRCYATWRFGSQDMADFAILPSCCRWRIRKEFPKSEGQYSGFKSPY
In words: YO-PRO assay: P2X7 receptor antagonistic activity in HEK cells stably expressing P2X7. Format: cell-based. Conditions: antagonistic activity with respect to the P2X7 receptor, read-out: IC50. The method, then:
The P2X7 receptor antagonistic activity of the compounds of formula (I) is determined in accordance with the following experimental method.
Cell Line Generation and YO-PRO Assay
Cell line generation was performed in general according to established molecular cloning protocols. Specifically, RNA was extracted from human whole blood using the Qiagen RNeasy kit (Qiagen, CH) according to the manufacturer's instructions. Subsequently cDNA was made (Superscript II, Invitrogen AG, CH) and the human P2X7 gene (genbank ref. BC011913) was amplified with the following primers: […] and […]. The amplified sequence was subsequently ligated into a pcDNA3.1 (+) NotI, NheI digested plasmid. Human embryonic kidney (HEK) cells (ATCC CRL—1573, Manassas, Va., USA) were transfected with the pcDNA3.1 (+).hP2X7 plasmid using lipofectamine 2000 (Invitrogen AG, CH) according to the manufacturer's instructions. Following a 24 h exposure to DNA, cells were trypsinized and re-seeded at low density in the presence of 250 μg Geneticin. Geneticin resistant cells were then selected during two consecutive rounds of cloning by serial limiting dilution with visual inspection. Individual clones were screened for P2X7 expression by applying ATP and recording the resultant uptake of YO-PRO1. Specific cell clones were chosen based on RNA and protein expression. HEK cells stably expressing P2X7 were used to screen drugs using the YO-PRO1 assay. Cells were grown to confluency in adherent culture at 37° C. in a humidified 5% CO2 incubator (split 1/5 every 3-4 days with DMEM, 10% FCS, 1% Penicillin/Streptomycin, 250 μg/ml Geneticin). Adherent cells were detached by incubation with Trypsine (1 ml per 165 cm^2 dish) for 2 minutes, then washed off with 10 ml PBS (without Mg^2+ and Ca^2+), and resuspended in DMEM, 10% FCS, 1% Penicillin/Streptomycin, no Geneticin. 10′000 cells per well (48 hours before the assay) or 25′000 cells per well (Vi-cell XR (Beckman Coulter) (24 hours before the assay) in 50 μl full medium were seeded on 384-well black-wall, clear bottom plates, that were coated before with 10 μl per well Poly-L-Lysine, incubated for 30-60 minutes at 37° C. and washed once with PBS. Medium was removed from cells and 50 μl of assay buffer containing 0.5 μM YO-PRO-1 was added into the wells. Solutions of antagonist compounds were prepared by serial dilutions of a 10 mM DMSO solution of the antagonist into PBS using a BioMek (Beckman Coulter). Each concentration was performed in duplicate. For IC50 measurements 10 concentration points were measured (10 μM being the highest concentration followed by 9 serial dilution steps 1/3). The cells were incubated with the antagonists of the present invention together with ATP at a final concentration of 250 μM for 90 minutes. During this time period, four time points were taken. Each time point comprised the average of several measurements made within a few seconds. Fluorescence was measured in the FLIPR tetra (Molecular Devices) using the filters appropriate for YO-PRO-1 fluorescence (excitation 485/20, emission 530/25). The FLIPR tetra was equipped with Molecular Devices Screen Works system control software to define and run experimental protocols. […] For IC50 measurements the maximum intensity is plotted against the concentration of compound to determine IC50 values.
With `O=C(NCC(c1cncnc1)N1CCCCC1)c1ccc2[nH]ccc2c1Cl` (racemic) [Example 27, rac-4-Chloro-1H-indole-5-carboxylic acid (2-piperidin-1-yl-2-pyrimidin-5-yl-ethyl)-amide], the IC50 – broadly, the midpoint of a concentration-inhibition curve – turned out to be 8.7 nM.

Take `Cn1cc(C(CNC(=O)c2ccc3[nH]ccc3c2Cl)N2CCOCC2)cn1` (racemic) [Example 28, rac-4-Chloro-1H-indole-5-carboxylic acid [2-(1-methyl-1H-pyrazol-4-yl)-2-morpholin-4-yl-ethyl]-amide]: the IC50 was determined as 66 nM.

As for `Cn1cc(C(CNC(=O)c2ccc3[nH]ccc3c2Cl)N2CCCCC2)cn1` (racemic) [Example 29, rac-4-Chloro-1H-indole-5-carboxylic acid [2-(1-methyl-1H-pyrazol-4-yl)-2-piperidin-1-yl-ethyl]-amide], the IC50 was 161 nM.

`O=C(NCC(c1c(F)cc(F)cc1F)N1CCCCC1)c1ccc2[nH]ccc2c1Cl` (racemic) [Example 30, rac-4-Chloro-1H-indole-5-carboxylic acid [2-piperidin-1-yl-2-(2,4,6-trifluoro-phenyl)-ethyl]-amide]: the IC50 came out at 1300 nM.

Consider `O=C(NCC(c1ccc(F)cc1F)N1CCCCC1)c1ccc2[nH]ccc2c1Cl` (racemic) [Example 31, rac-4-Chloro-1H-indole-5-carboxylic acid [2-(2,4-difluoro-phenyl)-2-piperidin-1-yl-ethyl]-amide], for which the IC50 came to 251 nM.

As for `O=C(NCC(c1ccc(F)cn1)N1CCCCC1)c1ccc2[nH]ccc2c1Cl` (racemic) [Example 32, rac-4-Chloro-1H-indole-5-carboxylic acid [2-(5-fluoro-pyridin-2-yl)-2-piperidin-1-yl-ethyl]-amide], the IC50 amounted to 232 nM.

Take `O=C(NCC(c1c(F)cc(F)cc1F)N1CCOCC1)c1ccc2[nH]ccc2c1Cl` (racemic) [Example 33, rac-4-Chloro-1H-indole-5-carboxylic acid [2-morpholin-4-yl-2-(2,4,6-trifluoro-phenyl)-ethyl]-amide]: the IC50 worked out at 301 nM.

For the compound `O=C(NCC(c1ccc(F)cc1F)N1CCOCC1)c1ccc2[nH]ccc2c1Cl` (racemic) [Example 34, rac-4-Chloro-1H-indole-5-carboxylic acid [2-(2,4-difluoro-phenyl)-2-morpholin-4-yl-ethyl]-amide], the IC50 stood at 61 nM.

For `O=C(NCC(c1ccccc1F)N1CCOCC1)c1ccc2[nH]ccc2c1Cl` (racemic) [Example 35, rac-4-Chloro-1H-indole-5-carboxylic acid [2-(2-fluoro-phenyl)-2-morpholin-4-yl-ethyl]-amide], the IC50 came out at 161 nM.

Regarding `O=C(NCC(c1ccc(F)cn1)N1CCOCC1)c1ccc2[nH]ccc2c1Cl` (racemic) [Example 36, rac-4-Chloro-1H-indole-5-carboxylic acid [2-(5-fluoro-pyridin-2-yl)-2-morpholin-4-yl-ethyl]-amide], the IC50 was determined as 265 nM.

In the case of `O=C(NCC(c1cccc(F)c1)N1CCOCC1)c1ccc2[nH]ccc2c1Cl` (racemic) [Example 37, rac-4-Chloro-1H-indole-5-carboxylic acid [2-(3-fluoro-phenyl)-2-morpholin-4-yl-ethyl]-amide], the IC50 worked out at 32 nM.

On to `O=C(NCC(c1ccc(Cl)cc1)N1CCOCC1)c1ccc2[nH]ccc2c1Cl` (racemic) [Example 38, rac-4-Chloro-1H-indole-5-carboxylic acid [2-(4-chloro-phenyl)-2-morpholin-4-yl-ethyl]-amide], for which the IC50 is 15 nM.

Turning to `O=C(NCC(c1ccc(Cl)cc1Cl)N1CCOCC1)c1ccc2[nH]ccc2c1Cl` (racemic) [Example 39, rac-4-Chloro-1H-indole-5-carboxylic acid [2-(2,4-dichloro-phenyl)-2-morpholin-4-yl-ethyl]-amide], the IC50 came to 455 nM.

On to `O=C(NCC(c1ccc(Cl)cc1F)N1CCOCC1)c1ccc2[nH]ccc2c1Cl` (racemic) [Example 40, rac-4-Chloro-1H-indole-5-carboxylic acid [2-(4-chloro-2-fluoro-phenyl)-2-morpholin-4-yl-ethyl]-amide], for which the IC50 is 73 nM.

`O=C(NCC(c1cccc(F)c1)N1CCCCC1)c1ccc2[nH]ccc2c1Cl` (racemic) [Example 43, rac-4-Chloro-1H-indole-5-carboxylic acid [2-(3-fluoro-phenyl)-2-piperidin-1-yl-ethyl]-amide]: the IC50 was 163 nM.

On to `O=C(NCC(c1ccc(C(F)(F)F)cc1)N1CCCCC1)c1ccc2[nH]ccc2c1Cl` (racemic) [Example 44, rac-4-Chloro-1H-indole-5-carboxylic acid [2-piperidin-1-yl-2-(4-trifluoromethyl-phenyl)-ethyl]-amide], for which the IC50 was found to be 889 nM.

On to `O=C(NCC(c1ccc(F)c(F)c1)N1CCCCC1)c1ccc2[nH]ccc2c1Cl` (racemic) [Example 45, rac-4-Chloro-1H-indole-5-carboxylic acid [2-(3,4-difluoro-phenyl)-2-piperidin-1-yl-ethyl]-amide], for which the IC50 turned out to be 83 nM.

Turning to `O=C(NCC(c1cccnc1)N1CCCCC1)c1ccc2[nH]ccc2c1Cl` (racemic) [Example 46, rac-4-Chloro-1H-indole-5-carboxylic acid (2-piperidin-1-yl-2-pyridin-3-yl-ethyl)-amide], the IC50 turned out to be 39 nM.

As to `Cc1ccc(C(CNC(=O)c2ccc3[nH]ccc3c2Cl)N2CCOCC2)cc1` (racemic) [Example 47, rac-4-Chloro-1H-indole-5-carboxylic acid (2-morpholin-4-yl-2-p-tolyl-ethyl)-amide], the IC50 was 54 nM.

On to `O=C(NCC(c1ccc(OC(F)(F)F)cc1)N1CCOCC1)c1ccc2[nH]ccc2c1Cl` (racemic) [Example 48, rac-4-Chloro-1H-indole-5-carboxylic acid [2-morpholin-4-yl-2-(4-trifluoromethoxy-phenyl)-ethyl]-amide], for which the IC50 was determined as 134 nM.

`O=C(NCC(c1ccc(C(F)(F)F)cc1)N1CCOCC1)c1ccc2[nH]ccc2c1Cl` (racemic) [Example 49, rac-4-Chloro-1H-indole-5-carboxylic acid [2-morpholin-4-yl-2-(4-trifluoromethyl-phenyl)-ethyl]-amide]: the IC50 turned out to be 34 nM.

With `O=C(NCC(c1ccc(F)c(F)c1)N1CCOCC1)c1ccc2[nH]ccc2c1Cl` (racemic) [Example 50, rac-4-Chloro-1H-indole-5-carboxylic acid [2-(3,4-difluoro-phenyl)-2-morpholin-4-yl-ethyl]-amide], the IC50 was 13 nM.

As to `Cc1ncc(C(CNC(=O)c2ccc3[nH]ccc3c2Cl)C2CCOCC2)cn1` (racemic) [Example 51, rac-4-Chloro-1H-indole-5-carboxylic acid [2-(2-methyl-pyrimidin-5-yl)-2-(tetrahydro-pyran-4-yl)-ethyl]-amide], the IC50 was 16 nM.

For `Cc1ncc(C(CNC(=O)c2ccc3[nH]ccc3c2Cl)OC2CCCC2)cn1` (racemic) [Example 52, rac-4-Chloro-1H-indole-5-carboxylic acid [2-cyclopentyloxy-2-(2-methyl-pyrimidin-5-yl)-ethyl]-amide], the IC50 turned out to be 32 nM.
